Data on six molecules can be found in US7449463B2, “Morpholinyl containing benzimidazoles as inhibitors of respiratory syncytial virus replication” (Tibotec Pharmaceuticals Ltd., priority 2003, dated 2008).

For series [1], the system named is Respiratory Syncytial Virus. In words: microbe, parasite or virus in culture. It counts as cell-based. Particulars: human respiratory syncytial virus. The gist of the method:
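HeLa cells infected with ~100 TCID50 RSV in Eagle's Basal Medium with 5% FCS, five-fold compound dilutions, 37° C, 5% CO2 for 7 days. Viability by MTT (A540 minus A690); EC50 for protection against cytopathic effect and CC50 from mock-infected wells, SI = CC50/EC50.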

Where [2] appears, read: 168 h, RSV-infected HeLa cells, MTT readout seven days after infection, −log of EC50 in molar units.
[3] abbreviates: pEC50 (−log of EC50 when expressed in molar units), protection against RSV cytopathology.

Structures are written as SMILES. pEC50: −log10 of the molar value.

Usually pEC50 stands for the EC50 on a negative log10 scale, so that one unit is a factor of ten. Lower therefore signals a large EC50. In general, melting point refers to the temperature, or range, at which the solid turns liquid. In turn, `Cc1cc(C)cc(N(CCO)Cc2ccc3nc(NCCCN4CCOCC4)n(Cc4nc(C)ccc4O)c3c2)c1` [Compound 58, 2-[6-{[(3,5-dimethyl-phenyl)-(2-hydroxy-ethyl)-amino]-methyl}-2-(3-morpholin-4-yl-propylamino)-benzimidazol-1-ylmethyl]-6-methyl-pyridin-3-ol] yielded a melting point of 180 °C. For the same molecule, the pEC50 in series [1] (setting [2]) was 9.40.
The molecule `Cc1cc(C)c2c(c1)nc(NCCCN1CCOCC1)n2Cc1nc(C)ccc1O` [Compound 156, 2-[5,7-dimethyl-2-(3-morpholin-4-yl-propylamino)-benzoimidazol-1-ylmethyl]-6-methyl-pyridin-3-ol] displayed a melting point of 234 °C. The molecule further gave a pEC50 in series [1] (setting [2]) of 4.90.
Take `Cc1cc(C)cc(N(CCCC(N)=O)Cc2ccc3nc(NCCCN4CCOCC4)n(C4CCCc5nc(C)c(C)nc54)c3c2)c1` (stereo not drawn) [Compound 213, 4-{(3,5-Dimethyl-phenyl)-[3-(2,3-dimethyl-5,6,7,8-tetrahydro-quinoxalin-5-yl)-2-(3-morpholin-4-yl-propylamino)-3H-benzoimidazol-5-ylmethyl]-amino}-butyramide]: the melting point was 109 °C. In addition, the pEC50 in series [1] (setting [3]) is 8.80.
The matching figures for `Cc1ccc(CCCO)c(NCc2ccc3nc(NCCCN4CCOCC4)n(Cc4cccc(Br)n4)c3c2)c1` [Compound 267, 3-(2-{[3-(6-Bromo-pyridin-2-ylmethyl)-2-(3-morpholin-4-yl-propylamino)-3H-benzoimidazol-5-ylmethyl]-amino}-4-methyl-phenyl)-propan-1-ol]: 141 °C and 7.30.
The matching figures for `Cc1ccc(CCCO)c(NCc2ccc3nc(NCCCN4CCOCC4)n(Cc4nc(C)c(C)nc4C)c3c2)c1` [Compound 255, 3-(4-Methyl-2-{[2-(3-morpholin-4-yl-propylamino)-3-(3,5,6-trimethyl-pyrazin-2-ylmethyl)-3H-benzoimidazol-5-ylmethyl]-amino}-phenyl)-propan-1-ol]: 120 °C and 7.60.
The matching figures for `Cc1cc(C)cc(N(CCCC(N)=O)Cc2ccc3nc(NCCCN4CCOCC4)n(Cc4cccc(Br)n4)c3c2)c1` [Compound 261, 4-[[3-(6-Bromo-pyridin-2-ylmethyl)-2-(3-morpholin-4-yl-propyl-amino)-3H-benzoimidazol-5-ylmethyl]-(3,5-dimethyl-phenyl)-amino]-butyramide]: 82 °C and 7.50.
